# Results taken from PMC7763995 (Molecules, 2020).
# Assays:
# Equine serum BChE = target: T1, Equine serum BChE (Equus caballus, UniProt P81908); experiment: Kinetic study of BChE inhibition, steady-state inhibition constants; format: biochemical
# T1 construct: equine serum BChE; purchased Sigma-Aldrich; host or cells: equine serum
# Procedure: Mechanisms of human erythrocyte AChE and equine serum BChE inhibition were assessed via a thorough analysis of enzyme kinetics. Residual activity was measured following 5 min incubation at 25°C (for temperature equilibration) with three increasing concentrations of inhibitor and six decreasing substrate concentrations. Substrate was added immediately after the 5 min incubation with inhibitor and the rates of absorption were monitored at 412 nm using a FLUOStar OPTIMA microplate reader.
# mouse brain homogenate [1] = experiment: TBARS assay, spontaneous lipid peroxidation in mouse brain homogenate; details: read-out: Inhibition of Spontaneous Lipid Peroxidation in Mice Brain Homogenate, TBARS Assay, IC50
# Procedure: (§1) The work was carried out in accordance with the EU Directive 2010/63/EU. Hybrid BDF1 mice (about 6 months old) were sacrificed by decapitation. Each brain was rapidly excised, frozen in liquid nitrogen, and stored at −80°C until use. The brains were thawed and homogenized using a Wisd WiseTis HG-15D homogenizer for 2 min in a buffer (0.01 M PBS, pH 7.4 or 0.1 M Tris-HCl, pH 7.4). Protein concentrations were determined by the Lowry method.
# The procedure was performed in accordance with the method of Ohkawa et al. with minor modifications. Briefly, mouse brain homogenate (protein concentration 1 mg/mL) in PBS (0.1 M, pH 7.4) was incubated for 30 min at 37°C with tested conjugates, and the reaction was terminated by addition of 0.4 mL of 17% (w/v) trichloroacetic acid (Sigma-Aldrich). Following centrifugation for 20 min at 1300× g, 0.5 mL of 0.8% (w/v) of TBA (Sigma-Aldrich) was added to 1 mL of supernatant, heated for 30 min at 95°C and then cooled to RT. The optical density of the TBARS, which corresponds to the produced MDA, was measured at 532 nm against a blank using an Agilent Cary 60 UV-Vis spectrophotometer (Agilent, Santa Clara, CA, USA). The MDA concentration was calculated using an extinction coefficient of 1.56 × 10^5 M^−1cm^−1. Trolox and BHT were used as reference antioxidants. Compounds were dissolved in DMSO (Sigma-Aldrich) and tested in a concentration range 0.01–100 μM. All compounds were examined at least in triplicate.
# mouse brain homogenate [2] = experiment: Luminol chemiluminescence assay in mouse brain homogenate (TBHP-initiated); details: compound concentration 20 µM; mice brain homogenate
# Procedure: as §1
# Luminol-dependent chemiluminescence produced by mouse brain homogenates was measured using a 1250 Luminometer (LKB Wallac, Turku, Finland) according to the assay by Di Meo et al. with minor modifications. The reaction mixture consisted of mouse brain homogenate (protein concentration 0.1 mg/mL) in 0.1 M Tris-HCl (Sigma-Aldrich), pH 7.4, luminol (Sigma-Aldrich) (0.05 mM), TBHP (Sigma-Aldrich) (0.073 M) and tested compounds at a concentration of 20 μM. This was placed in a light-proof luminometer chamber and the background reading was recorded. All measurements were carried out at 37°C. The gain control was set to give a reading of 10 mV using a built-in standard. The free radical content in mouse brain homogenate was evaluated by the change in the light sum (the area under the kinetic curve of luminescence intensity for the entire luminescence time). All compounds were examined at least in triplicate. The effects of tested compounds were measured as the percentage decrease in the light sum relative to the control (a sample with no compound added).
# [3] = FRAP (ferric reducing antioxidant power) assay; details: 20 µM, 1 h incubation; ratio of concentrations of Trolox and test compound with same effect
# Procedure: The FRAP (ferric reducing antioxidant power) assay proposed by Benzie and Strain [80, 81] was modified to be performed in 96-well microplates. The FRAP reagent contained 2.5 mL of 10 mM TPTZ (2,4,6-tris(2-pyridyl)-s-triazine (Sigma-Aldrich) solution in 40 mM HCl, 2.5 mL of 20 mM FeCl3 (Sigma-Aldrich) in distilled water and 25 mL of 0.3 M acetate buffer (pH 3.6). In 96-well microplates, 10 µL aliquots of the substance under investigation (compounds 7, 8 or reference substance) dissolved in DMSO (0.5 mM) were placed in quadruplicate. The FRAP reagent (240 µL) freshly prepared and warmed to 37°C was added to three of these samples, while the same volume of acetate buffer was added to the fourth one (blank). Consequently, the concentration of the substance in a plate was 20 µM. The absorbance at 600 nm was monitored spectrophotometrically with a FLUOStar OPTIMA microplate reader at 37°C for an hour with an interval of 5–10 min. Data in Table 2 are given for 1 h of incubation of compounds with FRAP reagent. The absorbances of the blanks and those of the mixture of 240 µL FRAP reagent plus 10 µL DMSO were subtracted from the absorbances of the samples at each time interval to calculate the absorbance change. Standard antioxidants Trolox and BHT dissolved in DMSO and analyzed as described above were used as reference compounds. A calibration curve with linear formula y = 0.03x (R^2 = 0.998, p < 0.0001) was obtained for Trolox solution in DMSO in the range 2.5–100 µM and the results were expressed as FRAP units (the values calculated as the ratio of the concentrations of Trolox and the test compound resulting in the same effect.)
# [4] = ABTS radical cation scavenging activity assay; details: 1 h incubation
# Procedure: Radical scavenging activity of the compounds was assessed using the ABTS radical decolorization assay with some modifications. ABTS was purchased from Tokyo Chemical Industry Co., Ltd. (Tokyo, Japan), potassium persulfate (dipotassium peroxodisulfate), Trolox (6-hydroxy-2,5,7,8-tetramethychroman-2-carboxylic acid), and HPLC-grade ethanol were obtained from Sigma-Aldrich. Aqueous solutions were prepared using deionized water.
# The solution of cation radical ABTS^•+ was produced by incubation of ABTS with potassium persulfate in deionized water for 12–16 h at room temperature in the dark. Radical scavenging capacity of the compounds was analyzed by mixing 10 μL of compound with 240 μL of ABTS^•+ working solution in ethanol (100 μM final concentration). The reaction was monitored for an hour with an interval of 5–10 min. Data are given for 1 h of incubation of compounds with ABTS^•+. The reduction in absorbance was measured spectrophotometrically at 734 nm using a xMark microplate UV/VIS microplate spectrophotometer (Bio-Rad, Hercules, CA, USA).
# Ethanol blanks were run in each assay. Values were obtained from three replicates of each sample and three independent experiments. Standard antioxidants Trolox and BHT were used as reference compounds.
# Antioxidant capacity as Trolox equivalent (TEAC) values was determined as the ratio between the slopes obtained from the linear correlation of the ABTS radical absorbance with the concentrations of tested compounds and Trolox. […] The compounds were tested in the concentration range of 0.1–100 µM.
# T1 sequence (P81908 whole entry): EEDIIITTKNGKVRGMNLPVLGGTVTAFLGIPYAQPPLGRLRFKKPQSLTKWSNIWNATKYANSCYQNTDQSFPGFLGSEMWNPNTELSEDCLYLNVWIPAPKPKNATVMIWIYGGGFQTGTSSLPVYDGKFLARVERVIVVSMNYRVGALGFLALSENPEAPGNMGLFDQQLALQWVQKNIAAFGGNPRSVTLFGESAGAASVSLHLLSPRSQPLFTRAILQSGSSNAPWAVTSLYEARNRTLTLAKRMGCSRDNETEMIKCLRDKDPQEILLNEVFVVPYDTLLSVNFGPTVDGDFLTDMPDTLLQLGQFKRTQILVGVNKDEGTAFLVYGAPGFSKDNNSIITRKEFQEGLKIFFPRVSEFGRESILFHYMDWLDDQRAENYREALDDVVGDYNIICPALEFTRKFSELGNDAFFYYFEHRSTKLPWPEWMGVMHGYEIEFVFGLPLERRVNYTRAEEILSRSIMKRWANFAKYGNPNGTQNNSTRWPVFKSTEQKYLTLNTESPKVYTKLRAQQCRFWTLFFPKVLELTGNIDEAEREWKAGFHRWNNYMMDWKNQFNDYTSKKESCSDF
smiles,measurement,setting,value
"CC(C)(C)c1cc(C=NCCNc2c3c(nc4ccccc24)CCCCC3)cc(C(C)(C)C)c1O [Compound 7c, 2,6-Di-tert-butyl-4-{[2-(7,8,9,10-tetrahydro-6H-cyclohepta[b]quinolin-11-ylamino)-ethylimino]-methyl}-phenol]","αKi (noncompetitive component), BChE",Equine serum BChE; Lineweaver-Burk plots,0.437 ± 0.010 µM
same,Ki,"Equine serum BChE; Lineweaver-Burk plots, read-out: Ki (competitive component), BChE",0.164 ± 0.005 µM
same,Mechanism of BChE inhibition,Equine serum BChE; changes in both Km and Vmax,mixed type of reversible inhibition
same,IC50,mouse brain homogenate [1],10.4 ± 0.7 µM
same,"Radical Scavenging Capacity in Luminol Chemiluminescence Assay, Luminescence Inhibition, %",mouse brain homogenate [2],95.0 ± 0.4%
same,"Ferric Reducing Antioxidant Power, FRAP Units",[3],0.52 ± 0.04
same,IC50,[4],17.8 ± 1.6 µM
same,"ABTS^•+-Scavenging Activity, TEAC",[4]; ratio of slopes test compound/Trolox,1.11 ± 0.04
